Patent US20070060617A1, “2-Methoxy-5(5-trifluoromethyl-tetrazol-1-yl-benzyl)-2s-phenyl-piperdin-3s-yl)-amine for the treatment of social phobia” (priority 2004, published 2007)
Counter-ions that a name gives are not always drawn.

Test system: patients suffering from social phobia (Social Anxiety Disorder)
Assay: double-blind, placebo-controlled study in patients suffering from social phobia (self-report questionnaires, state anxiety measures, verbal performance, PET)
Type: in vivo, human
Details: NK1-antagonist group, daily oral dose of 5 mg, administered four weeks
Excerpt: The first study was a double-blind, placebo-controlled study of the effect of [2-methoxy-5-(5-trifluoromethyl-tetrazol-1-yl-benzyl)]-(2-phenyl-piperidin-3-yl)-amine dihydrochloride in patients suffering from social phobia (otherwise known as Social Anxiety Disorder). Thirty six patients aged between 19 and 48 meeting the DSM-IV criteria for social phobia (as set out in Diagnostic and Statistical Manual of Mental Disorders, 4th Edition, published by the American Psychiatric Association) were selected. […] The effect of [2-methoxy-5(5-trifluoromethyl-tetrazol-1-yl-benzyl)]-(2-phenyl-piperidin-3-yl)-amine dihydrochloride on anxiety symptoms and brain activity in patients diagnosed with social phobia was evaluated using self-report questionnaires (the Social Phobia Scale (SPS), the Social Interaction Anxiety Scale (SIAS), the Personal Report on Confidence as a Speaker (PRCS), the Social Phobia Screening Questionnaire (SPSQ), the Sheehan Disability Inventory (SDI), self-report versions of the Liebowitz Social Anxiety Scale (LSAS-SR) and the Global Assessment of Functioning (GAF) scale), state anxiety measures (the Speilberger state-anxiety inventory (STAI-S), subjective ratings of fear and distress on 0-100 (min-max) scales and heart rate), verbal performance (comparing the number of spoken syllables during the first ten seconds of each videotaped speech) and PET assessments.

## COc1ccc(-n2nnnc2C(F)(F)F)cc1CN[C@H]1CCCN[C@H]1c1ccccc1 [[2-methoxy-5-(5-trifluoromethyl-tetrazol-1-yl-benzyl)]-(2-phenyl-piperidin-3-yl)-amine dihydrochloride]
  effect compared with placebo: generally superior to placebo
  improvement of patients with social phobia after short-term treatment: significantly improved
